The kinase profiling compilation of Christmann-Franck et al. (2016)

Experiments:
Experiment in all cases: KINOMEscan competition binding
Settings in all cases: compound 10.0 µM
ERBB3 (human) = ERBB3 (human) (UniProt P21860)
DCLK2 (human) = DCLK2 (human) (UniProt Q8N568)
STK11 (human) = STK11 (human) (UniProt Q15831)
[1] = test system: LRRK2 (human), Q5S007 [G2019S]
CAMK1D (human) = CAMK1D (human) (UniProt Q8IU85)
EIF2AK2 (human) = EIF2AK2 (human) (UniProt P19525)
HUNK (human) = HUNK (human) (UniProt P57058)
HUNK (human), sequence (P57058 whole entry, looked up): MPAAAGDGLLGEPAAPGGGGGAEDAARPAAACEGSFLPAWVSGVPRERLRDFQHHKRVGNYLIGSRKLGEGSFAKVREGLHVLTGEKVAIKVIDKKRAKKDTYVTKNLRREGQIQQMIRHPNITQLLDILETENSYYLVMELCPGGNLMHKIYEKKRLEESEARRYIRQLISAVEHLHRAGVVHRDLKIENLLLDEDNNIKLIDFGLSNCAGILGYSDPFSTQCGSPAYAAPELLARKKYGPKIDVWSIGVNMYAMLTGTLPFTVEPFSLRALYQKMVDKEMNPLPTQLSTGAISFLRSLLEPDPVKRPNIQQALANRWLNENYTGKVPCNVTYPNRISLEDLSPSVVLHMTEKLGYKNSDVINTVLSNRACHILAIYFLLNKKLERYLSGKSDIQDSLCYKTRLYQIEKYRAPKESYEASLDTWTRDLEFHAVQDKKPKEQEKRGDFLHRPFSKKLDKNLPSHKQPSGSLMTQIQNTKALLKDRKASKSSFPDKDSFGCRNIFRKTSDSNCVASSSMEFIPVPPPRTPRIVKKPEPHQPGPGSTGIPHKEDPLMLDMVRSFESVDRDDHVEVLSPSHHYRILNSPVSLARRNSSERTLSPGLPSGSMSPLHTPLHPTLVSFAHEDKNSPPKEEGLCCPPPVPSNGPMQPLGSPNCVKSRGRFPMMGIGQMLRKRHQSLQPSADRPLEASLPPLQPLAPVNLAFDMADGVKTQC

PIP5K1A (human) = PIP5K1A (human) (UniProt Q99755)
MAPK10 (human) = MAPK10 (human) (UniProt P53779)
RAF1 (human) = RAF1 (human) (UniProt P04049)
FLT3 (human) = FLT3 (human) (UniProt P36888)
CHEK2 (human) = CHEK2 (human) (UniProt O96017)
CLK2 (human) = CLK2 (human) (UniProt P49760)
CLK2 (human), sequence (P49760 whole entry, looked up): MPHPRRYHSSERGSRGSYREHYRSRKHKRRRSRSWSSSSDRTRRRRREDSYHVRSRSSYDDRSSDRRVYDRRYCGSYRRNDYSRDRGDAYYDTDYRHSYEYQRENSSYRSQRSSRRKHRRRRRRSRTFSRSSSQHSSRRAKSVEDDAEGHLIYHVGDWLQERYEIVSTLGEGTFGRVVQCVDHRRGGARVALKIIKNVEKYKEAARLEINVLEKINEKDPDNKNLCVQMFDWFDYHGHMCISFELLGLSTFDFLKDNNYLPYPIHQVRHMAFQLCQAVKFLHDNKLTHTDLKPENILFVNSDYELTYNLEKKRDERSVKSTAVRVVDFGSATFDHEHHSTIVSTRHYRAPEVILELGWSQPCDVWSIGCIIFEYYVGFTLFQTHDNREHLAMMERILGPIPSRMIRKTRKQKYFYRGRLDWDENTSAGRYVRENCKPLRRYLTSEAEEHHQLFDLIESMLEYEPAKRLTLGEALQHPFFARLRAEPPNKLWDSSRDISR

YSK4 (human) = YSK4 (human) (UniProt Q56UN5)
RIOK1 (human) = RIOK1 (human) (UniProt Q9BRS2)
PRKCI (human) = PRKCI (human) (UniProt P41743)
IGF1R (human) = IGF1R (human) (UniProt P08069)
PRKG1 (human) = PRKG1 (human) (UniProt Q13976)
DAPK3 (human) = DAPK3 (human) (UniProt O43293)
PLK1 (human) = PLK1 (human) (UniProt P53350)
MAP3K9 (human) = MAP3K9 (human) (UniProt P80192)
[2] = target: TYK2 JH1 catalytic (human) (UniProt P29597)
EPHB2 (human) = EPHB2 (human) (UniProt P29323)
EPHB2 (human), sequence (P29323 whole entry, looked up): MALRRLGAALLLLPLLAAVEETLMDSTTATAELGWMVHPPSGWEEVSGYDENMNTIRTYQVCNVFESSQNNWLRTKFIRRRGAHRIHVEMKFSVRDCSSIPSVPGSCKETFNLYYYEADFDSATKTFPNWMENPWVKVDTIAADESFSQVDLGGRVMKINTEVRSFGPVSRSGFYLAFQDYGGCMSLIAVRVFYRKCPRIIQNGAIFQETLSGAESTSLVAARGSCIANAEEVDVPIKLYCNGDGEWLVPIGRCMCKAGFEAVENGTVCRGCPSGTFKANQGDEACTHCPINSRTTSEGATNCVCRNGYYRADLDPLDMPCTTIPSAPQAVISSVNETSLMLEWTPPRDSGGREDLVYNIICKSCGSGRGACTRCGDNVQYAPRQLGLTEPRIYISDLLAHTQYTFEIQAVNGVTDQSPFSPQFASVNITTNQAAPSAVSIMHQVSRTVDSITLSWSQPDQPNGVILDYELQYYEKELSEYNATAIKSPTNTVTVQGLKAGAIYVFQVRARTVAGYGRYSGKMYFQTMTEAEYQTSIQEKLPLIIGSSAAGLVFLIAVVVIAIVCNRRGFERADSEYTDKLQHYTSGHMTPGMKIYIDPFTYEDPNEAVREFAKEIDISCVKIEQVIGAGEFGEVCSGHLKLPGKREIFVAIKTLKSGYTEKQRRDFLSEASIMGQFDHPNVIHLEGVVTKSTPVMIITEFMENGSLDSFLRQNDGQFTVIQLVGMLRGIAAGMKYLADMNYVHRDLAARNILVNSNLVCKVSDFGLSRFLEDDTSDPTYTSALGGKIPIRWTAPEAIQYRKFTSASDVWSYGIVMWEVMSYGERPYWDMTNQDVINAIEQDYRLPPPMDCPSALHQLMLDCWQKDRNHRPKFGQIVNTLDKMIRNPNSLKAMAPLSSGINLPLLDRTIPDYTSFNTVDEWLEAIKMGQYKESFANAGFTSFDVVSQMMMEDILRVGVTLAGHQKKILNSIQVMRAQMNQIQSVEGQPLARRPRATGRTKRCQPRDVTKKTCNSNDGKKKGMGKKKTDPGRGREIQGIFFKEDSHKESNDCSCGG

MAPK15 (human) = MAPK15 (human) (UniProt Q8TD08)
PRKAA2 (human) = PRKAA2 (human) (UniProt P54646)
PHKG1 (human) = PHKG1 (human) (UniProt Q16816)
MAPK11 (human) = MAPK11 (human) (UniProt Q15759)
CDK14 (human) = CDK14 (human) (UniProt O94921)
CDK14 (human), sequence (O94921 whole entry, looked up): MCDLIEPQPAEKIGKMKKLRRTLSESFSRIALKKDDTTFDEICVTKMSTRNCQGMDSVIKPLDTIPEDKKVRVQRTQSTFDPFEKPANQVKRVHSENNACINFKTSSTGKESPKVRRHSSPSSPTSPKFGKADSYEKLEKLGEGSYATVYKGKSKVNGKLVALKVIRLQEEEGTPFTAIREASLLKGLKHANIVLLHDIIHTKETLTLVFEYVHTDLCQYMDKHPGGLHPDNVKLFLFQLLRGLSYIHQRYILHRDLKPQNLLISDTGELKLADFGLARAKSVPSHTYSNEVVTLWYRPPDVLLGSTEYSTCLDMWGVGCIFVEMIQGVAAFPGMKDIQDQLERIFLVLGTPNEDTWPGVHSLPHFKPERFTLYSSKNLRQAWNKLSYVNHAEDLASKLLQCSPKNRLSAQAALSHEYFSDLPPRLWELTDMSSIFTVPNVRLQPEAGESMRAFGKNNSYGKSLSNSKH

TYRO3 (human) = TYRO3 (human) (UniProt Q06418)
CAMK2A (human) = CAMK2A (human) (UniProt Q9UQM7)
CAMK2A (human), sequence (Q9UQM7 whole entry, looked up): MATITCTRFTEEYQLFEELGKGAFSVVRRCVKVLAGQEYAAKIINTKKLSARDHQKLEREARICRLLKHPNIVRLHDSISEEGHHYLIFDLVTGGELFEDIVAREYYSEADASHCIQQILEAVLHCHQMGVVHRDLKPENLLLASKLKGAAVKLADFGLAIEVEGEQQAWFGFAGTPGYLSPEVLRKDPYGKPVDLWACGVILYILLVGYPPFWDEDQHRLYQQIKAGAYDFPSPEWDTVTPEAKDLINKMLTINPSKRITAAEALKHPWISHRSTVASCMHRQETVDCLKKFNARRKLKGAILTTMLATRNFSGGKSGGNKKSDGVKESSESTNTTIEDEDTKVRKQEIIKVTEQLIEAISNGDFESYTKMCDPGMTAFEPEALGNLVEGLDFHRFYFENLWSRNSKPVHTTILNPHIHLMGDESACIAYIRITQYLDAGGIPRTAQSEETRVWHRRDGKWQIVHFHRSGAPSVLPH

RPS6KA2 KD1 (human) = RPS6KA2 KD1 (human) (UniProt Q15349)
MAP2K5 (human) = MAP2K5 (human) (UniProt Q13163)
MAP2K5 (human), sequence (Q13163 whole entry, looked up): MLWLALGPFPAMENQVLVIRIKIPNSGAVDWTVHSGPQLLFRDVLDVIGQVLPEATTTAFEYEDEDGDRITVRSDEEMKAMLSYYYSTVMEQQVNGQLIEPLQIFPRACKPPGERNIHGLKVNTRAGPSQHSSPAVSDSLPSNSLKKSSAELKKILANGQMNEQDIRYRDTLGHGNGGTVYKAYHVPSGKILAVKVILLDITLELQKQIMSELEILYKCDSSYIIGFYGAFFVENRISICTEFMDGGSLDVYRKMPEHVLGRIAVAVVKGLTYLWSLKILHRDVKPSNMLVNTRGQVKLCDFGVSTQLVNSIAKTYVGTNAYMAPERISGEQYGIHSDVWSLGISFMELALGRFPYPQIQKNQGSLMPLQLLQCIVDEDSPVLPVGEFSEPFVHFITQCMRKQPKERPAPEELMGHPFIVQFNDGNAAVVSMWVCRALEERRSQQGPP

FGFR3 (human) = FGFR3 (human) (UniProt P22607)
[3] = test system: EGFR (human), P00533 [A750P; 747-749 del]
CSNK1G3 (human) = CSNK1G3 (human) (UniProt Q9Y6M4)
CDK4 CCND3 (human) = CDK4 CCND3 (human) (UniProt P11802+P30281)
BMPR1B (human) = BMPR1B (human) (UniProt O00238)
BMPR1B (human), sequence (O00238 whole entry, looked up): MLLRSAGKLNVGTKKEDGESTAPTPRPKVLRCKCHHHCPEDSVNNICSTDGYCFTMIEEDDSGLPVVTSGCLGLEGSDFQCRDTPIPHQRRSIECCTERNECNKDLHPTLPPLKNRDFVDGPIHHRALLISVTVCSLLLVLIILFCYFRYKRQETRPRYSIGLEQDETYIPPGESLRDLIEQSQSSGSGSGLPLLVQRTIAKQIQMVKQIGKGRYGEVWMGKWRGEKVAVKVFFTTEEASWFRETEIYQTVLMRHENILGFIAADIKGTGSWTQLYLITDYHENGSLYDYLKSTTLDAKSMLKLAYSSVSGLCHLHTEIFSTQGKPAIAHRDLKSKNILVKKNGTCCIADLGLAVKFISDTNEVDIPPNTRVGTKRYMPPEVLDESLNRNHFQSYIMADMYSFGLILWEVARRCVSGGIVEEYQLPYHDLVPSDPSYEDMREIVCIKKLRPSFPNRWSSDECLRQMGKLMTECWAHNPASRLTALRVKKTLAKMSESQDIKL

MTOR (human) = MTOR (human) (UniProt P42345)
[4] = test system: BMX (human), P51813 [V600E]
LCK (human) = LCK (human) (UniProt P06239)

DCLK2 (human), sequence (Q8N568 whole entry, looked up): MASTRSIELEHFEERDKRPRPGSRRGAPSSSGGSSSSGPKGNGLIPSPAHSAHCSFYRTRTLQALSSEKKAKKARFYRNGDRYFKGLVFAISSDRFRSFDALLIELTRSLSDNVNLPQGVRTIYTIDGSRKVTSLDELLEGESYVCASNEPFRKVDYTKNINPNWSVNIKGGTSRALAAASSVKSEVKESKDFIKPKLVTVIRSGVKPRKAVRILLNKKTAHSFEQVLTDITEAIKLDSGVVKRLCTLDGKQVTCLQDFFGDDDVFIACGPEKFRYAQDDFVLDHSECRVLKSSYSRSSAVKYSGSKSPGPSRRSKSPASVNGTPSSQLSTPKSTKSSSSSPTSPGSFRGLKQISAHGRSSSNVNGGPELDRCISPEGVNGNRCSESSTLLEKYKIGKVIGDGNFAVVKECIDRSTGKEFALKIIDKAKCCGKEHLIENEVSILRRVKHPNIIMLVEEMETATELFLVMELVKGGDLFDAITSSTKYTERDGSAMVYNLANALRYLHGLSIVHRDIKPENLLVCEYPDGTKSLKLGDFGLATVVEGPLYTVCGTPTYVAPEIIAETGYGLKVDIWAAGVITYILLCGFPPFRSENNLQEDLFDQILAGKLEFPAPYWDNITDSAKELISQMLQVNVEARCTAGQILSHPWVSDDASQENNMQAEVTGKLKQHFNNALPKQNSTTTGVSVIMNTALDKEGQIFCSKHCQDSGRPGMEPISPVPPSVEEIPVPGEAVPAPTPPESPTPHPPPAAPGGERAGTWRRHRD

SMILES | kinase still bound, per cent of control (DCLK2 (human)) | kinase still bound, per cent of control (STK11 (human)) | kinase still bound, per cent of control (CAMK1D (human)) | kinase still bound, per cent of control (EIF2AK2 (human)) | kinase still bound, per cent of control (HUNK (human)) | kinase still bound, per cent of control (PIP5K1A (human)) | kinase still bound, per cent of control (MAPK10 (human)) | kinase still bound, per cent of control (FLT3 (human)) | kinase still bound, per cent of control (CLK2 (human)) | kinase still bound, per cent of control (YSK4 (human)) | kinase still bound, per cent of control (RIOK1 (human)) | kinase still bound, per cent of control (IGF1R (human)) | kinase still bound, per cent of control (DAPK3 (human)) | kinase still bound, per cent of control (PLK1 (human)) | kinase still bound, per cent of control (MAP3K9 (human)) | kinase still bound, per cent of control [2] | kinase still bound, per cent of control (MAPK15 (human)) | kinase still bound, per cent of control (PRKAA2 (human)) | kinase still bound, per cent of control (PHKG1 (human)) | kinase still bound, per cent of control (MAPK11 (human)) | further results
COc1cc2c(Nc3ccc(NC(=O)c4ccccc4)cc3)ncnc2cc1OCCCN1CCOCC1 | 100% | 100% | 62% | 100% | 81% | 100% | 42% | 8.8% | 80% | 23% | 100% | 100% | 100% | 100% | 70% | 84% | 100% | 72% | 53% | 84% | kinase still bound, per cent of control (ERBB3 (human)): 1%; kinase still bound, per cent of control [1]: 100%; kinase still bound, per cent of control (RAF1 (human)): 100%; kinase still bound, per cent of control (CHEK2 (human)): 100%; kinase still bound, per cent of control (PRKCI (human)): 94%; kinase still bound, per cent of control (PRKG1 (human)): 100%; kinase still bound, per cent of control (EPHB2 (human)): 100%; kinase still bound, per cent of control (CDK14 (human)): 100%; kinase still bound, per cent of control (TYRO3 (human)): 60%; kinase still bound, per cent of control (CAMK2A (human)): 85%; kinase still bound, per cent of control (RPS6KA2 KD1 (human)): 84%; kinase still bound, per cent of control (MAP2K5 (human)): 0.3%; kinase still bound, per cent of control (FGFR3 (human)): 67%; kinase still bound, per cent of control [3]: 22%; kinase still bound, per cent of control (CSNK1G3 (human)): 100%; kinase still bound, per cent of control (CDK4 CCND3 (human)): 100%; kinase still bound, per cent of control (BMPR1B (human)): 26%; kinase still bound, per cent of control (MTOR (human)): 70%; kinase still bound, per cent of control [4]: 100%
CCOc1cc(N2CCC(O)CC2)ccc1Nc1ncc2c(n1)N(C)c1ccccc1C(=O)N2C | 0.65% | 100% | 100% | 100% | 100% | 100% | 100% | 100% | 100% | 100% | 100% | 100% | 100% | 100% | 100% | 100% | 100% | 100% | 100% | 100% | kinase still bound, per cent of control (ERBB3 (human)): 100%; kinase still bound, per cent of control (RAF1 (human)): 100%; kinase still bound, per cent of control (CHEK2 (human)): 100%; kinase still bound, per cent of control (PRKG1 (human)): 100%; kinase still bound, per cent of control (LCK (human)): 100%; kinase still bound, per cent of control (EPHB2 (human)): 100%; kinase still bound, per cent of control (CDK14 (human)): 100%; kinase still bound, per cent of control (TYRO3 (human)): 100%; kinase still bound, per cent of control (CAMK2A (human)): 100%; kinase still bound, per cent of control (RPS6KA2 KD1 (human)): 100%; kinase still bound, per cent of control (FGFR3 (human)): 100%; kinase still bound, per cent of control [3]: 100%; kinase still bound, per cent of control (CSNK1G3 (human)): 100%; kinase still bound, per cent of control (BMPR1B (human)): 100%; kinase still bound, per cent of control [4]: 100%
CC(=O)c1c(C)c2cnc(Nc3ccc(N4CCNCC4)cn3)nc2n(C2CCCC2)c1=O | 2.9% | 82% | 7.3% | 30% | 77% | 32% | 0.35% | 35% | 0.35% | 4.3% | 38% | 81% | 0.45% | 8.4% | 78% | 18% | 9.4% | 40% | 18% | 96% | kinase still bound, per cent of control [1]: 39%; kinase still bound, per cent of control (PRKCI (human)): 57%; kinase still bound, per cent of control (CDK14 (human)): 5%; kinase still bound, per cent of control (TYRO3 (human)): 93%; kinase still bound, per cent of control (CAMK2A (human)): 3.2%; kinase still bound, per cent of control (RPS6KA2 KD1 (human)): 14%; kinase still bound, per cent of control (MAP2K5 (human)): 62%; kinase still bound, per cent of control (CDK4 CCND3 (human)): 2%; kinase still bound, per cent of control (BMPR1B (human)): 50%; kinase still bound, per cent of control (MTOR (human)): 40%
CCN(CCO)CCCOc1ccc2c(Nc3cc(CC(=O)Nc4cccc(F)c4)[nH]n3)ncnc2c1 | 100% | 80% | 83% | 100% | 94% | 73% | 41% | 0.4% | 67% | 39% | 100% | 100% | 82% | 100% | 98% | 85% | 100% | 77% | 35% | 100% | kinase still bound, per cent of control (ERBB3 (human)): 35%; kinase still bound, per cent of control [1]: 100%; kinase still bound, per cent of control (RAF1 (human)): 100%; kinase still bound, per cent of control (CHEK2 (human)): 100%; kinase still bound, per cent of control (PRKCI (human)): 96%; kinase still bound, per cent of control (EPHB2 (human)): 93%; kinase still bound, per cent of control (CDK14 (human)): 100%; kinase still bound, per cent of control (TYRO3 (human)): 100%; kinase still bound, per cent of control (CAMK2A (human)): 78%; kinase still bound, per cent of control (RPS6KA2 KD1 (human)): 80%; kinase still bound, per cent of control (MAP2K5 (human)): 0.4%; kinase still bound, per cent of control (FGFR3 (human)): 92%; kinase still bound, per cent of control (CSNK1G3 (human)): 100%; kinase still bound, per cent of control (CDK4 CCND3 (human)): 100%; kinase still bound, per cent of control (BMPR1B (human)): 77%; kinase still bound, per cent of control (MTOR (human)): 100%; kinase still bound, per cent of control [4]: 100%
